Results: ChEMBL document CHEMBL4052716, “Discovery and development of a novel class of phenoxyacetyl amides as highly potent TRPM8 agonists for use as cooling agents” (Bioorg Med Chem Lett, 2017)
In brackets after ≈: the same amount, converted by molar mass.

What was measured:
[1] = target: T1, Transient receptor potential cation channel subfamily M member 8 (Homo sapiens, UniProt Q7Z2W7); test: Agonist activity at human TRPM8 expressed in HEK293 cells assessed as increase in intracellular calcium level after 15 mins by Fluo-3-AM dye-based fluorescence assay; format: cell-based
Target sequence in this assay (Q7Z2W7 whole entry): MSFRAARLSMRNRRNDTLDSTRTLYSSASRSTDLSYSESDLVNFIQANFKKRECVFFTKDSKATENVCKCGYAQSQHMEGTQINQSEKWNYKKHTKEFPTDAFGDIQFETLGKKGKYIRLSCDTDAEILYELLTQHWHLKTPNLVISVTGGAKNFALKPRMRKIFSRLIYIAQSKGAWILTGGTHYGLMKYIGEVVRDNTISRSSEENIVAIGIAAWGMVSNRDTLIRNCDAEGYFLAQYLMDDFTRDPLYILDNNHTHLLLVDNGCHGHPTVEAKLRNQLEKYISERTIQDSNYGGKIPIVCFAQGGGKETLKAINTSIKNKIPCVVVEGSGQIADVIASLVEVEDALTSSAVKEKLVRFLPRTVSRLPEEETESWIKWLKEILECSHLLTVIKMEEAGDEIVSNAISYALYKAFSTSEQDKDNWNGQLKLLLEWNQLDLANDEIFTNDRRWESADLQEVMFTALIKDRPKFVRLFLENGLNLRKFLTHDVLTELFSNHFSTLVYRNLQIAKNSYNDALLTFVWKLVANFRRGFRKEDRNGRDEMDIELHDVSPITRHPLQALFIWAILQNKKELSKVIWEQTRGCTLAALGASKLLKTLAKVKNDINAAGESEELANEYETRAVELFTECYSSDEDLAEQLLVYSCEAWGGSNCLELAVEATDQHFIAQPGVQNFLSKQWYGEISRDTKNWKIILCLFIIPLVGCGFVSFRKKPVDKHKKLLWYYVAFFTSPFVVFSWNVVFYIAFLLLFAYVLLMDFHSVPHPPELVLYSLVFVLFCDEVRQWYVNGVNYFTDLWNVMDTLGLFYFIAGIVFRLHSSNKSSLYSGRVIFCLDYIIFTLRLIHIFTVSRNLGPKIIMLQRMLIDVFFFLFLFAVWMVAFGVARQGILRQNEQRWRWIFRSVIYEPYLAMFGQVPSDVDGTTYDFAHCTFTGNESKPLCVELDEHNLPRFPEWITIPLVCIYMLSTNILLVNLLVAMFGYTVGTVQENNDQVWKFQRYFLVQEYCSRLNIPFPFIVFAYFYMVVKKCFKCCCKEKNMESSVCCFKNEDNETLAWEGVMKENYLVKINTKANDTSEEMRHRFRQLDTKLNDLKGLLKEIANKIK

[2] = test system: Homo sapiens; test: In vivo agonist activity at human TRPM8 in trained human subjects assessed as concentration required to deliver cooling sensation equivalent to 45 uM WS-3 by measuring cooling intensity; format: functional
[3] = target: T1, Transient receptor potential cation channel subfamily M member 8; test: Potency index, ratio of WS-3 EC50 to compound EC50 for human TRPM8 receptor
Target sequence in this assay (Q7Z2W7 whole entry, looked up): as the sequence (Q7Z2W7 whole entry) above

[4] = Permeability of the compound assessed as drug transport by PAMPA; format: physicochemical
[5] = Thermodynamic solubility of the compound in pH 7.1 phosphoric buffer; format: physicochemical; conditions: read-out: Therm_solubility

Compound | EC50 ([1]; read-out: EC50) | Activity [2] | Ratio EC50 [3] | EC50 ([1]; hek293) | Drug transport [4] | solubility thermodynamic [5]
CCN(Cc1cccs1)C(=O)COc1cc(C)ccc1O | 24 nM | 5 µM | 180 | – | – | –
CCN(Cc1cccs1)C(=O)c1cc2cc(C)ccc2n1C | – | – | – | Not Active | – | –
CCN(Cc1ccccc1)C(=O)COc1ccc(C)cc1 | 1880 nM | – | 2 | – | – | –
Cc1ccc(OCC(=O)N(Cc2cccs2)c2nccn2C)cc1 | 1790 nM | – | 3 | – | – | –
CCN(Cc1cccs1)C(=O)COc1ccc2c(c1)COC2 | 61 nM | 5 µM | 58 | – | 33% | 571 µM (≈ 181 µg/mL)
CCN(Cc1ccc(C)s1)C(=O)COc1ccc(C)cc1 | 178 nM | – | 18 | – | – | –
CCN(Cc1cc[nH]n1)C(=O)COc1ccc(C)cc1 | – | – | – | Not Active | – | –
CCN(Cc1cccs1)C(=O)COc1ccccc1 | 1400 nM | – | 4 | – | – | –
COc1ccc(OCC(=O)N(Cc2cccs2)c2cc[nH]n2)cc1 | 3.7 nM | – | – | – | – | –
Cc1ccc(/C=C/C(=O)N(Cc2cccs2)c2ccn[nH]2)cc1 | 0.004 nM | 3 µM | > 1e+06 | – | 5% | 3.7 µM (≈ 1.2 µg/mL)
O=C(COc1ccc2c(c1)CCC2)N(Cc1cccs1)c1ccn[nH]1 | 0.001 nM | 3 µM | > 1e+06 | – | 5% | 26 µM (≈ 9.19 µg/mL)
O=C(/C=C/c1ccc2c(c1)OCO2)N(Cc1cccs1)c1ccn[nH]1 | 0.002 nM | – | > 1e+06 | – | – | –
CCc1ccc(OCC(=O)N(CC)Cc2cccs2)cc1 | 67 nM | 5 µM | 66 | – | – | –
CCCc1ccc(OCC(=O)N(CC)Cc2cccs2)cc1 | 1810 nM | – | 3 | – | – | –
CCN(Cc1cccs1)C(=O)C[C@H](O)c1ccccc1 | 52000 nM | – | 0.1 | – | – | –
CCN(Cc1ccoc1)C(=O)COc1ccc(C)cc1 | 136 nM | 5 µM | 32 | – | – | –
CCN(Cc1nccs1)C(=O)COc1ccc(C)cc1 | 3060 nM | – | 2 | – | – | –
Cc1ccc(OCC(=O)N(Cc2cccs2)c2cccnc2)cc1 | 198 nM | 15 µM | 24 | – | – | –
Cc1ccc2oc(C(=O)N(Cc3cccs3)c3ccn[nH]3)cc2c1 | 40 nM | 4 µM | > 1e+06 | – | – | –
CCN(Cc1ccncc1)C(=O)COc1ccc(C)cc1 | – | – | – | Not Active | – | –
CCN(Cc1cccs1)C(=O)COc1ccc(CO)cc1 | 21900 nM | – | 0.2 | – | – | –
Cc1ccc(OC2CCN(Cc3cccs3)C2=O)cc1 (stereo not drawn) | – | – | – | Not Active | – | –

Compound | EC50 ([1]; read-out: EC50) | Activity [2] | Ratio EC50 [3] | EC50 ([1]; hek293) | Drug transport [4] | solubility thermodynamic [5]
Cc1ccc(OCC(=O)N(Cc2cccs2)C2CCCCC2)cc1 | 40000 nM | – | 0.1 | – | – | –
CCN(Cc1cccs1)C(=O)COc1ccc2c(c1)CCC2 | 0.8 nM | 3 µM | 7680 | – | 3% | 85 µM (≈ 26.8 µg/mL)
CCN(Cc1cn[nH]c1)C(=O)COc1ccc(C)cc1 | – | – | – | Active | – | –
CCN(Cc1cccs1)C(=O)COc1ccc(C(F)(F)F)cc1 | 236 nM | – | 18 | – | – | –
Cc1ccc(OCC(=O)N(Cc2cccs2)C2CC2)cc1 | 8 nM | 5 µM | 577 | – | – | –
Cc1ccc(OCC(=O)NCc2cccs2)cc1 | 25000 nM | – | 0.1 | – | – | –
CCN(Cc1cccs1)C(=O)COc1ccc(Cl)cc1 | 39 nM | – | 93 | – | – | –
CCN(Cc1cccs1)C(=O)COc1ccc(OC)cc1 | 120 nM | 15 µM | 32 | – | – | –
CCN(Cc1cccn1C)C(=O)COc1ccc(C)cc1 | 21300 nM | – | 0.3 | – | – | –
CCN(Cc1cccs1)C(=O)COc1cccc(C)c1 | 97 nM | 5 µM | 42 | – | – | –
Cc1ccc(OCC(=O)N(Cc2cccs2)C2COC2)cc1 | 23000 nM | – | 0.3 | – | – | –
Cc1ccc(OCC(=O)N(CCCO)Cc2cccs2)cc1 | 3000 nM | – | 1 | – | – | –
COCCN(Cc1cccs1)C(=O)COc1ccc(C)cc1 | 400 nM | – | 11 | – | – | –
CCC(C)N(Cc1cccs1)C(=O)COc1ccc(C)cc1 (stereo not drawn) | 2000 nM | – | 2 | – | – | –
CCN(Cc1cccs1)C(=O)c1cc2cc(C)ccc2[nH]1 | 2000 nM | – | 2 | – | – | –
Cc1ccc(OCC(=O)N(Cc2cccs2)c2cn[nH]c2)cc1 | 1.4 nM | >5 µM | 3820 | – | – | –
CCN(Cc1cccs1)C(=O)c1cc2cc(C)ccc2o1 | 120 nM | 10 µM | 42 | – | 2% | 27 µM (≈ 8.08 µg/mL)
CCN(Cc1cccs1)C(=O)COc1ccc(C(=O)O)cc1 | – | – | – | Not Active | – | –
CCN(Cc1ccco1)C(=O)COc1ccc(C)cc1 | 489 nM | 15 µM | 9 | – | – | –
CCN(Cc1cccs1)C(=O)COc1ccc(F)cc1 | 422 nM | – | 10 | – | – | –
Cc1ccc(OCC(=O)N(Cc2cccs2)c2c[nH]nc2C)cc1 | 0.4 nM | >5 µM | 10700 | – | – | –
Cc1ccc(OCC(=O)N(Cc2cccs2)c2cnccn2)cc1 | 1240 nM | – | 3 | – | – | –

Compound | EC50 ([1]; read-out: EC50) | Activity [2] | Ratio EC50 [3] | EC50 ([1]; hek293) | Drug transport [4] | solubility thermodynamic [5]
CCN1C(=O)C(Oc2ccc(C)cc2)C1c1cccs1 (stereo not drawn) | – | – | – | Active | – | –
CCN(Cc1cccs1)C(=O)c1cc2cc(C)ccc2s1 | 1600 nM | – | 3 | – | – | –
CCN(Cc1cccs1)C(=O)COc1ccc(C#N)cc1 | 1990 nM | – | 2 | – | – | –
CCN(Cc1cccs1)C(=O)C(C)Oc1ccc(C)cc1 (stereo not drawn) | 889 nM | – | 4 | – | – | –
CCN(Cc1cccs1)C(=O)COc1ccccc1C | 192 nM | – | 18 | – | – | –
CCN(Cc1cncs1)C(=O)COc1ccc(C)cc1 | 1100 nM | – | 4 | – | – | –
Cc1ccc(OCC(=O)N(C)Cc2cccs2)cc1 | 400 nM | – | 15 | – | – | –
C=CCN(Cc1cccs1)C(=O)COc1ccc(C)cc1 | 20 nM | 5 µM | 365 | – | – | –
Cc1ccc(OCC(=O)N(Cc2cccs2)C(C)(C)C)cc1 | 11000 nM | – | 0.4 | – | – | –
CCCN(Cc1cccs1)C(=O)COc1ccc(C)cc1 | 40 nM | >5 µM | 149 | – | – | –
CCN(Cc1cccs1)C(=O)C[C@@H](O)c1ccccc1 | – | – | – | Not Active | – | –
Cc1ccc(OCC(=O)N(Cc2cccs2)C(C)C)cc1 | 70 nM | – | 66 | – | – | –
CCN(Cc1cccs1)C(=O)COc1ccc(C)cc1 | 8 nM | 5 µM | 620 | – | 12% | 545 µM (≈ 158 µg/mL)
Cc1ccc(OCC(=O)N(Cc2cccs2)c2ccncc2)cc1 | 52 nM | – | 77 | – | – | –
CCN(Cc1cc[nH]c1)C(=O)COc1ccc(C)cc1 | 21800 nM | – | 0.2 | – | – | –
CCN(Cc1c[nH]nn1)C(=O)COc1ccc(C)cc1 | 31100 nM | – | 0.1 | – | – | –
CCN(C(=O)COc1ccc(C)cc1)C(C)c1cccs1 (stereo not drawn) | – | – | – | Not Active | – | –
CCN(Cc1cccnc1)C(=O)COc1ccc(C)cc1 | 15400 nM | – | 0.2 | – | – | –
CCN(Cc1cccs1)C(=O)C(C)(C)Oc1ccc(C)cc1 | 11000 nM | – | 0.3 | – | – | –
CCN(Cc1cccs1)C(=O)COc1ccc(C)cc1O | 8 nM | 3 µM | 650 | – | – | –
CCN(Cc1cccs1)C(=O)/C=C/c1ccc(C)cc1 | 2 nM | 3 µM | 2340 | – | – | –
CCN(Cc1ccsc1)C(=O)COc1ccc(C)cc1 | 88 nM | 5 µM | 49 | – | – | –

Compound | EC50 ([1]; read-out: EC50) | Activity [2] | Ratio EC50 [3] | EC50 ([1]; hek293) | Drug transport [4] | solubility thermodynamic [5]
CCN(Cc1cccs1)C(=O)/C=C/c1ccc2c(c1)OCO2 | 0.7 nM | – | 6830 | – | – | –
CCN(Cc1cccs1)C(=O)CCc1ccc(C)cc1 | 93 nM | >5 µM | 40 | – | – | –
Cc1ccc(OCC(=O)N(Cc2cccs2)c2nccs2)cc1 | 2240 nM | – | 2 | – | – | –
CCN(Cc1cccs1)C(=O)COc1ccc(C(C)C)cc1 | 397 nM | – | 10 | – | – | –
Cc1ccc(OCC(=O)N(Cc2cccs2)c2c(C)n[nH]c2C)cc1 | 0.3 nM | – | 14700 | – | – | –
Cc1ccc(OCC(=O)N(Cc2cccs2)c2ncccn2)cc1 | 3700 nM | – | 1 | – | – | –
Cc1ccc(OCC(=O)N(Cc2cccs2)c2ccccc2)cc1 | 23 nM | 15 µM | 197 | – | – | –
COc1ccc(OCC(=O)N(Cc2cccs2)c2ccn[nH]2)cc1 | – | 5 µM | 1140 | – | – | –
CON(Cc1cccs1)C(=O)COc1ccc(C)cc1 | 10 nM | – | 317 | – | – | –
CCN(Cc1ccccn1)C(=O)COc1ccc(C)cc1 | 16000 nM | – | 0.2 | – | – | –
Cc1ccc(OCC(=O)N(Cc2cccs2)c2cnn(C)c2)cc1 | 63000 nM | – | 0.1 | – | – | –
O=C(COc1ccc2c(c1)OCO2)N(Cc1cccs1)c1ccn[nH]1 | 0.6 nM | – | 6340 | – | – | –
Cc1ccc(OCC(=O)N(Cc2cccs2)c2ccn(C)n2)cc1 | 855 nM | – | 13 | – | – | –
Cc1ccc(OCC(=O)N(Cc2cccs2)CC(C)C)cc1 | 900 nM | – | 3 | – | – | –
Cc1ccc(OCC(=O)N(O)Cc2cccs2)cc1 | 8000 nM | – | 0.4 | – | – | –
CCN(Cc1cccs1)C(=O)COc1ccc2c(c1)CCCC2 | 689 nM | – | 7 | – | – | –
COc1ccc2oc(C(=O)N(Cc3cccs3)c3ccn[nH]3)cc2c1 | 1.1 nM | 5 µM | 30900 | – | – | –
Cc1ccc(OCC(=O)N(Cc2cccs2)c2ccccn2)cc1 | 200 nM | 15 µM | 25 | – | – | –
Cc1ccc(OCC(=O)N(CCO)Cc2cccs2)cc1 | 900 nM | – | 5 | – | – | –
